In patent US20080051330A1, “Inhibitors of serine protease activity, methods and compositions for treatment of herpes viruses” (priority 1999, published 2008):
* marks the point of attachment. Cbz = O=C(OCc1ccccc1)*; CHN2 = [N-]=[N+]=C*

Legend:
[1] = test system: Herpes simplex virus-2, strain MS; type: in vivo, SCID mouse; details: SCID mice; for survival rate: HSV-2 at 1000 times LD50 on abraded skin, topical, three times daily for 7 days from 2 hours after inoculation, compound 100 mg/kg, untreated control 20%
HSV [2] = test: Activity against HSV in vitro: ELISA with rabbit anti-HSV antibody in infected human lung fibroblast cells; type: cell-based, HSV-1 and HSV-2; details: HLF cells, virus absorbed in presence or absence of AAT
CMV = test: Activity against CMV in vitro: plaque reduction assay in human lung fibroblast cells; type: cell-based; details: HLF cells, plaques counted day 6-10 post-infection
HSV [3] = details: at molar concentration lower than that of acyclovir; cited from earlier work

Molecule | survival rate [1] | percentage of mice surviving, in words, relative to vehicle control ([1]; HSV-2 at 1000 times LD50) | effect on HSV by ELISA, optical density expressed as percent of control (HSV [2]) | reduction in number of CMV plaques (CMV) | inhibitory effect on HSV replication (HSV [3])
Nc1nc2c(ncn2COCCO)c(=O)[nH]1 [acyclovir, reference compound] | about 60% | – | – | – | –
AAT: glycoprotein of MW 51,000 with 394 amino acids and 3 oligosaccharide side chains; serine protease inhibitor | about 60% | significantly greater | significant inhibitory effect | significant inhibitory effect | –
Cbz-Leu-Val-Gly-CHN2 [reference compound] | – | – | – | – | strong inhibitory effects
Cystatin C: human cysteine proteinase inhibitor present in extracellular fluids (protein, UniProt P01034 27-146, looked up) Cystatin-C: SSPGKPPRLVGGPMDASVEEEGVRRALDFAVGEYNKASNDMYHSRALQVVRARKQIVAGVNYFLDVELGRTTCTKTQPNLDNCPFHDQPHLKRKAFCSFQIYAVPWQGTMTLSKSTCQDA | – | – | – | – | strong inhibitory effects
